Columns and labels:
[1] = system: ES2 cells; assay: MTS IC50 dosage calculation with BMS-833923; assay type: cell-based; conditions: Homo sapiens, ES-2; ES2 monolayer, MTS up to 72 hrs
Protocol: (§1) Ovarian cancer cells were seeded at a density of 4,000 cells/well in 96 well plates. The following day, fresh medium was added to each well and they were treated with BMS-833923 at a dose-escalation at the following doses 0, 0.1, 0.25, 0.5, 1, 2, 5, 10, and 20 μM. These cells were kept at 37° C. in a humidified 5% CO2 atmosphere. Every 24 hours, 20 μl/well of MTS reagent were added in 96 well plates and stored in 37° C. incubator for at least 3 hours followed by absorbance reading at 490 nm. The assay was carried out up to 72 hrs to obtain the IC50 concentrations of each agent.
(§2) IC50 dosage determinations were performed as described above. […] BMS-833923 IC50 doses were used for all related experiments for specific ovarian cancer cell lines.

[2] = system: OV90 cells; assay: MTS IC50 dosage calculation with BMS-833923; assay type: cell-based; conditions: Homo sapiens, OV-90; OV90 monolayer, MTS up to 72 hrs
Protocol: as §1, §2

[3] = system: SKOV3 cells; assay: MTS IC50 dosage calculation with BMS-833923; assay type: cell-based; conditions: Homo sapiens, SK-OV-3; SKOV3 monolayer, MTS up to 72 hrs
Protocol: as §1, §2

[4] = system: TOV112D cells; assay: MTS IC50 dosage calculation with BMS-833923; assay type: cell-based; conditions: Homo sapiens; TOV112D monolayer, MTS up to 72 hrs
Protocol: as §1, §2

[5] = system: OV90 OCSC (CD44+/CD24-); assay: Matrigel invasion assay of CD44+/CD24- ovarian cancer stem cells; assay type: cell-based; conditions: 2.5 μM, 24 hours
Protocol: (§3) Fluorescence-activated cell sorting (FACS) was performed in order to sort into 2 distinct phenotypes: 1) ovarian cancer stem cell phenotype (OCSC=CD44+/CD24−) and 2) non-ovarian cancer stem cells (non-OCSC=all other phenotypes). Each ovarian cancer phenotype was evaluated for invasion properties using the Matrigel invasion assay for the SKOV3 and OV90 cell lines. Matrigel™-coated chamber (BD Pharmingen) were rehydrated for 2 hours in humidified tissue culture incubator at 37° C., 5% CO2. After rehydration, the medium was carefully removed without disturbing the layer of Matrigel Matrix on the membrane. The cell suspension was prepared in serum-free medium containing 10^5 cells/mL. The lower chambers of the 24-well plate were filled with 750 μL serum-free medium containing 10 μg/mL fibronectin as a chemotactic factor. […] The cells were then fixed, stained and counted. Numbers of invaded cells at least 10 consecutive fields were enumerated and their average was calculated. Data are expressed as the number of migrating cells per field. Three groups were evaluated: 1) non-OCSC; 2) OCSC; 3) OCSC plus BMS833923 treatment.
(§4) One aggressive property of cancer includes the ability to invade tissues locally. Therefore, the ability of Ovarian Cancer Stem Cells (OCSC) with CD44+/CD24− phenotype to invade via Matrigel invasion assay was evaluated. […]

[6] = system: SKOV3 OCSC (CD44+/CD24-); assay: as above; assay type: cell-based; conditions: 2.5 μM, 24 hours
Protocol: as §3, §4

[7] = system: A2780/CP70 cells; assay: Carboplatin IC50 with and without BMS-833923 in platinum resistant cell line; assay type: cell-based; conditions: A2780/CP70, addition of BMS-833923 at 5 μM
Protocol: Considering the synergy described above and that the Hedgehog pathway is associated with cancer stem cell properties. In the effect of BMS-833923 plus carboplatin in two isogenic ovarian cancer cell lines specifically designed to evaluate platinum resistance mechanisms: A2780 (platinum sensitive) & A2780/CP70 (platinum resistant). Each cell line was evaluated to determine the IC50 dose of carboplatin to ensure a discernable difference in platinum treatment could be determined (FIG. 11A). The A2780/CP70 cell line required a 4-fold increase in carboplatin to reach IC50 (A2780/CP70=400 μM; A2780=100 μM). […] (FIG. 11B and FIG. 11C).

[8] = system: CP2780 xenografts; assay: Xenograft tumor growth, carboplatin-resistant model; assay type: in vivo; conditions: SCID mice; BMS-833923 100 mg/kg i.p. daily, Carboplatin 40 mg/kg i.p. twice a week, two weeks
Protocol: Female SCID mice 6-8 weeks old were inoculated i.p. with 5×10^6 A2780 or A2780/CP70 cells suspended in 200 μL PBS (PH 7.4). Seven days later when the tumor reached a size of greater than 150 mm^3, the mice were randomly divided into 4 groups (8 mice per group) as follows: (1) PBS-treated control; (2) BMS-833923 alone (100 mg/kg, i.p. daily, two weeks); (3) Carboplatin alone (40 mg/kg, i.p. twice a week, two weeks); (4) Combination of BMS-833923 and Carboplatin treatment. Mice were weighed and tumor diameters were measured with calipers every 2-3 days for 20 days. The tumor volumes (mm^3) were calculated as (W^2×L)/2, where W and L are the minor and major diameters (in millimeters), respectively.
Xenograft experiments were performed as described above. Carboplatin was dosed days 7, 11, 14, 18; BMS-833923 was dosed days 8 through 20. The experiment was terminated due to excessive tumor size in vehicle and BMS-833923 treatment groups.
The CP2780 was derived from the A2780 Ovarian tumor xenograft model by selection for resistance to cisplatin. The CP2780 growth appeared to be more robust than observed for parental A2780 model (FIG. 12B). Average tumor volume doubling time for CP2780 was estimated at 2 days. Doubling time for parental A2780 tumor model was estimated at 3 days. […]

[9] = MTD for combination therapy; assay type: in vivo; conditions: in vivo; BMS-833923 + carboplatin given together; previously demonstrated
From the text: Treatment with BMS-833923 appeared to have little effect on the growth of A2780 xenografts in vivo.

CNCc1ccc(C)c(NC(=O)c2ccc(Nc3nc(-c4ccccc4)c4ccccc4n3)cc2)c1 [BMS-833923, N-{2-methyl-5-[(methylamino)methyl]phenyl}-4-[(4-phenylquinazolin-2-yl)amino]benzamide]
IC50 [1]: 4 µM
IC50 [2]: 4 µM
IC50 [3]: 7.5 µM
IC50 [4]: 5 µM
invasive properties of OCSC (number of cells invaded) [5]: lower than non-OCSCs
invasive properties of OCSC (number of cells invaded) [6]: lower than non-OCSCs
reduction of platinum needed to achieve the same cell death [7]: 10 fold
effect on growth of CP2780 (A2780/CP70) xenografts in vivo [8]: little effect
MTD [9]: 100 mg/kg
